Data taken from patent publication US20080003184A1, “Superparamagnetic Gadolinium Oxide Nanoscale Particles and Compositions Comprising Such Particles” (priority 2004, published 2008).
Read-outs that look alike come from different tables or passages of the source.

Columns and labels:
[1] = Relaxation time measurements (T1, T2 relaxivity) in H2O, 1.5 T scanner; format: physicochemical; settings: 22-23° C.
Protocol: (§1) Samples of Gd2O3-DEG from Example 1 (with an average particle size of about 5 nm and a particle size range from about 1 to 15 nm) and Gd-DTPA (Magnevist®) were prepared in 10 mm NMR test tubes with H2O at 9 different Gd concentrations from […]. At measurement the test tubes were immersed in a bowl with saline at 22-23° C., which was the temperature of the scanner room.
(§2) T1 and T2 relaxation times were measured with a 1.5 T Philips Achieva whole body scanner using the head coil. A 2D mixed multi-echo SE interleaved with multi-echo IR sequence was used for the measurements [kleef_mrm—1987]. Imaging time parameters were varied to minimise the standard deviations in relaxation time calculations: TE=30 ms, TR (SE)=500 ms, TI=150 ms, and TR (IR)=1150 ms (set 1); TE=50 ms, TR (SE)=760 ms, TI=370 ms, and TR (IR)=2290 ms (set 2). Other MR parameters were: FOV=23 cm, slice thickness=7 mm, number of echoes=4.
In addition, samples of Gd2O3-DEG and Resovist® were prepared and tested under the same conditions as above. There were 6 different Gd and Fe concentrations between 0.1 and 1.5 mM. Resovist® is based on ferrocarbotran colloidal sol of superparamagnetic iron oxide nanoparticles (SPIO). The particles have a hydrodynamic diameter of 60 nm on an iron core of 4 nm. […] Accordingly, Gd2O3-DEG particles enable a contrast agent with complementary properties to those based on SPIO.

[2] = Signal intensity from first echo of spin echo sequence (TE=30 ms, TR=500 ms); format: physicochemical
Protocol: as §1, §2
At higher concentrations (>0.9 mM) the strong T2 effect attenuated the signal for the nanoparticle samples. That is, the Gd2O3 sample reached the signal intensity peak at lower concentrations (0.6 mM) compared to the Gd-DTPA signal intensity that peaked at approximately 1.2 mM in this sequence.
In addition, samples of Gd2O3-DEG and Resovist® were prepared and tested under the same conditions as above. There were 6 different Gd and Fe concentrations between 0.1 and 1.5 mM. […]

THP-1 cells = experiment: Monocyte studies: incubation, washing, T1/T2 measurement; format: cell-based; settings: 0.1-0.9 mM Gd, 2 h or 8 h at 37° C., washed twice
Protocol: For monocyte experiments, THP-1 cells were cultured in RPMI 1640 medium with 10% fetal calf serum (GIBCO, Invitrogen, Carlsbad, Calif., USA) with additions of L-glutamate and penicillin/streptomycin solution (Invitrogen). Cells were counted and found 97% viable. Cells were treated with Gd2O3-DEG or Gd-DTPA in concentrations 0.1, 0.3, 0.6, and 0.9 mM. Cells of one well were left untreated. A control series was prepared of cell culture medium only with the different concentrations of Gd2O3-DEG particles. Two plates of 24 wells each were prepared as described above; one was incubated with the Gd2O3-DEG and Gd-DTPA for 2 h and the other one for 8 h at 37° C. After incubation cells were transferred to Falcon tubes and washed twice with medium and centrifugated for 8 minutes at 1100 rpm.

[3] = Magnevist 0.1 mmol/kg, cited from earlier work

O=C([O-])CN(CCN(CC(=O)[O-])CC(=O)O)CCN(CC(=O)[O-])CC(=O)O.[Gd+3] [Gd-DTPA]
r1 relaxivity constant [1]: 4.86 ± 0.08 mM⁻¹ s⁻¹ | r2 relaxivity constant [1]: 5.53 ± 0.14 mM⁻¹ s⁻¹ | Gd concentration at signal intensity peak [2]: approximately 1.2 mM | Presence with cells after the washing procedure (THP-1 cells): not present in the cell suspension after the washing | detected plasma concentration of Gd ([3]; 3 minutes after injection): 0.6 mM | detected plasma concentration of Gd ([3]; 60 minutes after injection): 0.24 mM
